Patent publication US9458463B2, “Method for treatment of diabetes by a small molecule inhibitor for GRK5” (MAX-PLANCK-GESELLSCHAFT ZUR FÖRDERUNG DER WISSENSCHAFTEN …, priority 2010, dated 2016)

Experiments:
[1] = test system: HepG2 cells; assay: Cell viability assay (CellTiter-Glo / automated cell number) in HepG2; format: cell-based; details: Homo sapiens, read-out: Inhibition of cell viability IC50
Excerpt: (§1) Luminescent cell viability assay. For the detection of cell viability, the CellTiter-Glo® Luminescent Cell Viability Assay was used. This test is based on a luciferase reaction to measure the amount of ATP in cells. This correlates directly with the number of cells and their viability because cells lose the ability to synthesize ATP directly after e.g. loss of membrane integrity or a cytotoxic event. The protocol was adapted to 24 well plates and to the different culture conditions resulting in a standardized protocol which is described below. Cell lysis, inhibition of endogenous ATPases and detection of ATP was performed by adding the CellTiter-Glo® Reagent to the culture wells. Per well, 100 μl reagent were mixed with the same volume of proper Medium. Lysing of the cells took place by 10 min incubation at RT and moderate shaking. Three times 50 μl cell lysate was transferred into a white 96 well plate to eliminate stray light, and the bioluminescence was measured.
(§2) In a 96 well dish 10000 cells per well (100 μl) were seed and treated for 72 h. At the end of the treatment, cells were fixed with 4% paraformaldehyde in PBS for 15 minutes, permeabilized with 0.1% triton-X 100 in PBS for 15 minutes and stained with Hoechst 33342 (20 μg/ml in PBS; dilute from 20 mg/ml stock) directly to cells in 100 μl medium in PBS for 30 minutes at 37° C. Stained cells were imaged with a Cellomics ArrayScan VT I automated microscope. Images were analyzed with vHCS Scan Target Activation software v5.1.2 to identify apoptotic cells. Six fields per well of a 96 well plate we re-imaged at 10× magnification. First, cells were identified by their nuclei staining in channel 1 of Cellomics and their amount. Staining intensity was plotted and compared between NT controls and compound treated cells. Finally, data was obtained using vHCS View software v 5.1.2 and the numbers of cells present in the 96 well were identified as “Valid Object Count” whereas the percentage of infection was determined as “% selected”. IC50 values have been calculated accordingly.

[2] = test system: beta TC6 cells; assay: Cell viability assay (CellTiter-Glo / automated cell number) in beta TC6; format: cell-based; details: Mus musculus, read-out: Inhibition of cell viability IC50
Excerpt: as §1, §2

[3] = test system: 3T3-L1 cells; assay: Cell viability assay (CellTiter-Glo / automated cell number) in 3T3-L1; format: cell-based; details: Mus musculus, read-out: Inhibition of cell viability IC50
Excerpt: as §1, §2

[4] = target: T1, full length GRK5 (Homo sapiens, UniProt P34947); assay: GRK5 kinase activity assay, ADP Glo Kinase Assay technology (Promega); format: biochemical; details: group II; ADP Glo Kinase Assay (Table 9-B)
T1 construct: 6/2 fold concentrated full length GRK5 (Millipore, #14-714) in reaction buffer; purchased Millipore 14-714
Description: The maximal compound assay concentration was set to 100 μM, representing the compound assay concentration used in the primary screen.
Increasing concentrations of GRK5 are incubated together with 100 μM ATP in the absence and presence of 10 μM casein in a reaction buffer. Within this incubation non-phosphorylated casein is converted into phosphorylated casein and ATP is converted into ADP. Thereafter nonconverted ATP is digested into AMP by addition of the ADP-Glo™ Reagent. Subsequently the ADP that is produced by GRK5 activity is phosphorylated back to ATP by addition of Promega Kinase Detection Reagent. These ATP levels serve as measure for the GRK5 activity and are quantified by a luciferase/luciferin reaction.
For GRK5 kinase activity assay, the following protocol was used:
The reaction buffer used was composed of: 20 mM MES pH 6.0, 1 mM DTT, 10 mM MgCl2, 0.01% Tween20 and the reaction volume was 6 μL.
Firstly 4 μL 6/4 fold concentrated substrate and 6/4 fold concentrated ATP in 1 fold concentrated reaction buffer are added to each well of the assay plate. Subsequently 67 nL […] concentrated test compound in 100% DMSO are added to each well except to C− and C+ wells using pin tool. Then 67 nL 100% DMSO are pipetted to C− (no kinase, no compound) and C+ (no compound) wells using pin-tool and 2 μL reaction buffer are added to C− wells. […] After incubation for 120 min. at room temperature 6 μL ADP-Glo™ Reagent (ADP Glo™ Kinase Assay Kit: Promega, V9101) are added to each well to stop the kinase reaction and deplete the unconsumed ATP. After a second incubation for 40 min. at room temperature 12 μL of Kinase Detection Reagent are added to convert ADP to ATP and start luciferase/luciferin reaction for detection of ATP. […] Finally, after incubation for 40 min at room temperature the luminescence intensity was measured.
The activity of the compounds was classified according to IC50 for binding sites of Grk5 into the following ranges:
8800 Customer compounds were screened for their ability to inhibit the enzymatic activity of GRK5. Screening was performed using the ADP Glo™ Kinase Assay technology (Promega). The small molecular weight compounds were delivered at 10 mM stock concentration and were tested at a final assay concentration of 100 μM.
IC50 values were determined in triplicates at 12 concentrations with a dilution factor of three. Triplicates were measured on three different assay plates. The maximal compound assay concentration was set to 100 μM representing the compound assay concentration used in the primary screen. A larger maximal compound assay concentration could not be achieved since the maximal compound concentration on the compound plates was 10 mM (>1% DMSO concentration in the assay).

[5] = test system: C2C12 cells; assay: Cell viability assay (CellTiter-Glo / automated cell number) in C2C12; format: cell-based; details: Mus musculus, read-out: Inhibition of cell viability IC50
Excerpt: as §1, §2

T1 sequence (P34947 whole entry): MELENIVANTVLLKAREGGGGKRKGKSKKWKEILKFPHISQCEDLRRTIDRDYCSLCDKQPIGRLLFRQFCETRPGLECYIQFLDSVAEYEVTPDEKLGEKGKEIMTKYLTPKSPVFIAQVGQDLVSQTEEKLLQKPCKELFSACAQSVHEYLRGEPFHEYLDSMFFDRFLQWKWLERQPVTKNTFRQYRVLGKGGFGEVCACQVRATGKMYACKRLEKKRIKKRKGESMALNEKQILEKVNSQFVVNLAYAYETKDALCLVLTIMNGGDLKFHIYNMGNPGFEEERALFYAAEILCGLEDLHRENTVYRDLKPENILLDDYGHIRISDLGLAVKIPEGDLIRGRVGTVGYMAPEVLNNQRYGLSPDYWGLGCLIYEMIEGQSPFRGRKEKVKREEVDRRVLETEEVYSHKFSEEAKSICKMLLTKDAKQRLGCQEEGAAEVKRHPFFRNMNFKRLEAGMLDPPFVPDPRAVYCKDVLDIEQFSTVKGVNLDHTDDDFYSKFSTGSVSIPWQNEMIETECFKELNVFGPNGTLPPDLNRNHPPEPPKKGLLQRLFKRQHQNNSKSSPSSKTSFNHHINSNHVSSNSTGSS

Work on `CC[C@@H](NC(=O)c1ccc2c(c1)/C(=C/c1[nH]c(C)c(C(=O)NCCN3CCCC3)c1C)C(=O)N2)c1ccccc1` [II.6, (3Z)-3-({3,5-dimethyl-4-[(2-pyrrolidin-1-ylethyl)carbamoyl]-1H-pyrrol-2-yl}methylene)-2-oxo-N-[(1R)-1-phenylpropyl]indoline-5-carboxamide] yielded an IC50 [1] of 270 nM, an IC50 [2] of 420 nM and an IC50 [3] of 1700 nM. For the same compound, the IC50 [4] was 100 to 1000 nM and the IC50 [5] was 1490 nM.
Work on `CC[C@@H](NC(=O)c1ccc2c(c1)/C(=C/c1[nH]c(C)c(C(=O)N3CCN(C)CC3)c1C)C(=O)N2)c1ccccc1` [II.7, (3Z)-3-({3,5-dimethyl-4-[(4-methylpiperazin-1-yl)carbonyl]-1H-pyrrol-2-yl}methylene)-2-oxo-N-[(1R)-1-phenylpropyl]indoline-5-carboxamide] yielded an IC50 [1] of 690 nM, an IC50 [2] of 1190 nM and an IC50 [3] of 1070 nM. The IC50 [4] was 2000 to 10000 nM and the IC50 [5] was 1310 nM.
For `CCC(NC(=O)c1ccc2c(c1)/C(=C/c1[nH]c(C)c(C(=O)NCCN3CCCC3)c1C)C(=O)N2)c1ccc(Cl)cc1` (stereo not shown) [II.13, (3Z)-N-[1-(4-chlorophenyl)propyl]-3-({3,5-dimethyl-4-[(2-pyrrolidin-1-ylethyl)carbamoyl]-1H-pyrrol-2-yl}methylene)-2-oxoindoline-5-carboxamide], the IC50 [1] was 1590 nM, the IC50 [2] was 1630 nM and the IC50 [3] was greater than 10000 nM. It also gave an IC50 [4] of 100 to 1000 nM and an IC50 [5] of 4610 nM.
In the case of `Cc1[nH]c(/C=C2\C(=O)Nc3ccc(C(=O)N[C@H](C)c4ccccc4)cc32)c(C)c1C(=O)N1CCCCC1` [II.14, (3Z)-3-{[3,5-dimethyl-4-(piperidin-1-ylcarbonyl)-1H-pyrrol-2-yl]methylene}-2-oxo-N-[(1R)-1-phenylethyl]indoline-5-carboxamide], the IC50 [1] is reported as 720 nM, the IC50 [2] is reported as 1190 nM and the IC50 [3] is reported as 750 nM. It also gave an IC50 [4] of 100 to 1000 nM and an IC50 [5] of 1420 nM.
`Cc1[nH]c(/C=C2\C(=O)Nc3ccc(C(=O)N[C@H](C)c4ccccc4)cc32)c(C)c1C(=O)N1CCN(C)CC1` [II.15, (3Z)-3-({3,5-dimethyl-4-[(4-methylpiperazin-1-yl)carbonyl]-1H-pyrrol-2-yl}methylene)-2-oxo-N-[(1R)-1-phenylethyl]indoline-5-carboxamide] was tested, and the IC50 [1] was 540 nM, the IC50 [2] was 1680 nM and the IC50 [3] was 1120 nM. It also gave an IC50 [4] of 1000 to 2000 nM and an IC50 [5] of 2370 nM.
Work on `COc1ccc([C@@H](C)NC(=O)c2ccc3c(c2)/C(=C/c2[nH]c(C)c(C(=O)N4CCN(C)CC4)c2C)C(=O)N3)cc1` [II.21, (3Z)-3-({3,5-dimethyl-4-[(4-methylpiperazin-1-yl)carbonyl]-1H-pyrrol-2-yl}methylene)-N-[(1R)-1-(4-methoxyphenyl)ethyl]-2-oxoindoline-5-carboxamide] yielded an IC50 [1] of 1610 nM, an IC50 [2] of 4070 nM and an IC50 [3] of 1310 nM. It also gave an IC50 [4] of 2000 to 10000 nM and an IC50 [5] of 9830 nM.
With `CCN(CC)CCNC(=O)c1c(C)[nH]c(/C=C2\C(=O)Nc3ccc(C(=O)N[C@H](C)c4ccccc4)cc32)c1C` [II.59, (3Z)-3-[(4-{[2-(diethylamino)ethyl]carbamoyl}-3,5-dimethyl-1H-pyrrol-2-yl)methylene]-2-oxo-N-[(1R)-1-phenylethyl]indoline-5-carboxamide] the IC50 [1] was 370 nM, the IC50 [2] was 710 nM and the IC50 [3] was 630 nM. The IC50 [5] was 1110 nM.
With `CCN(CC)CCNC(=O)c1c(C)[nH]c(/C=C2\C(=O)Nc3ccc(C(=O)N[C@@H](C)c4ccccc4)cc32)c1C` [II.60, (3Z)-3-[(4-{[2-(diethylamino)ethyl]carbamoyl}-3,5-dimethyl-1H-pyrrol-2-yl)methylene]-2-oxo-N-[(1S)-1-phenylethyl]indoline-5-carboxamide] the IC50 [1] was 2290 nM, the IC50 [2] was 2210 nM and the IC50 [3] was 2000 nM. It also gave an IC50 [5] of 4060 nM.
`CC[C@@H](NC(=O)c1ccc2c(c1)/C(=C/c1[nH]c(C)c(C(=O)NCCN(CC)CC)c1C)C(=O)N2)c1ccccc1` [II.61, (3Z)-3-[(4-{[2-(diethylamino)ethyl]carbamoyl}-3,5-dimethyl-1H-pyrrol-2-yl)methylene]-2-oxo-N-[(1R)-1-phenylpropyl]indoline-5-carboxamide] was tested, and the IC50 [1] was 330 nM, the IC50 [2] was 440 nM and the IC50 [3] was 600 nM. For the same compound, the IC50 [4] was less than 100 nM and the IC50 [5] was 1490 nM.
